Experimental data published in ChEMBL document CHEMBL5346896, “Development of indolealkylamine derivatives as potential multi-target agents for COVID-19 treatment” (Eur J Med Chem, 2023).
pEC50, pIC50, pKi: −log10 of the molar value. Calls of active or inactive are those of the source. The rule behind the calls is not given here.

Assays:
[1] = species on record: Homo sapiens; experiment: Inhibition of CAMKII (unknown origin) using syntide-2 as substrate assessed as maximum efficacy at 50 uM incubated for 30 mins by spectrophotometric analysis relative to control
[2] = system: SARS-CoV-2; experiment: Antiviral activity against SARS-CoV-2 assessed as inhibition of viral replication; format: functional, organism-based; conditions: Severe acute respiratory syndrome coronavirus 2
[3] = biological target: T1, Melatonin receptor type 1A (Homo sapiens, UniProt P48039); experiment: Displacement of 2-[125I]iodomelatonin from human melatonin MT1 receptor stably expressed in HEK293 cell membrane assessed as inhibition constant incubated for 120 mins by rapid filtration based competition binding assay; format: cell membranes
T1 sequence (P48039 whole entry): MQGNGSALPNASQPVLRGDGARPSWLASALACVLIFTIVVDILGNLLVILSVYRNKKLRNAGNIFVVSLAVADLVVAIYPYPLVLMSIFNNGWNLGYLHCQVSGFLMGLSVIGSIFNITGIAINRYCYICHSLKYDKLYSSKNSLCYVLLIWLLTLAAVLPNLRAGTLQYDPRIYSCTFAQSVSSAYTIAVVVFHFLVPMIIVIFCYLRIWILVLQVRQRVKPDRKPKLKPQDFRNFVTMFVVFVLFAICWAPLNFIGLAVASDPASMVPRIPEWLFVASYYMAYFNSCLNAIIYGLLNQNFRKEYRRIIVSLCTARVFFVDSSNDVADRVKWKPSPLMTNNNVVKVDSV

[4] = biological target: T2, Melatonin receptor type 1B (Homo sapiens, UniProt P49286); experiment: Displacement of 2-[125I]iodomelatonin from human melatonin MT2 receptor stably expressed in human HEK293 cell membrane assessed as inhibition constant incubated for 120 mins by rapid filtration based competition binding assay; format: cell membranes
T2 sequence (P49286 whole entry): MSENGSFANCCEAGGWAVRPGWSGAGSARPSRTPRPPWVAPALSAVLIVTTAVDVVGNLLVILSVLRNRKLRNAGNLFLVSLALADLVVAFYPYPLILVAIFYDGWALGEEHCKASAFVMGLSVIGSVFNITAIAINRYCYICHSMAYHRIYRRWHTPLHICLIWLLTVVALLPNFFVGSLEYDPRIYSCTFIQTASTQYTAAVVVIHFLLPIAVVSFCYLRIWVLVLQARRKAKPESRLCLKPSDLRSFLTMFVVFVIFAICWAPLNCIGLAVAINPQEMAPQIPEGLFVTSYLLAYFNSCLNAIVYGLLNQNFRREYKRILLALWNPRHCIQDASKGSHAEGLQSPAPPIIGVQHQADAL

[5] = species on record: Homo sapiens; experiment: Selectivity ratio of pKi for displacement of 2-[125I]iodomelatonin from human melatonin MT1 receptor stably expressed in human HEK293 cell membrane to pKi for displacement of 2-[125I]iodomelatonin from human melatonin MT2 receptor stably expressed in human HEK293 cell membrane
[6] = biological target: T1, Melatonin receptor type 1A; experiment: Inverse agonist activity at human melatonin MT1 receptor expressed in HEK293 cells co-transfected with Galphai9 chimera construct assessed as stimulation of inositol phosphate production by HTRF based assay; format: functional, cell-based
[7] = biological target: T1, Melatonin receptor type 1A; experiment: Partial agonist activity at human melatonin MT1 receptor expressed in HEK293 cells co-transfected with Galphai9 chimera construct assessed as stimulation of inositol phosphate production by HTRF based assay; format: functional, cell-based
[8] = biological target: T2, Melatonin receptor type 1B; experiment: Partial agonist activity at human melatonin MT2 receptor expressed in HEK293 cells co-transfected with Galphai9 chimera construct assessed as stimulation of inositol phosphate production by HTRF based assay; format: functional, cell-based
[9] = biological target: Spike glycoprotein/Angiotensin-converting enzyme 2 (Severe acute respiratory syndrome coronavirus 2) (UniProt Q9BYF1+P0DTC2); experiment: Inhibition of d2-labelled SARS-CoV-2 spike protein RBD-terbium labelled SNAP tagged human ACE2 interaction transfected in HEK293 cells at 100 uM preincubated with cells for 1 hrs followed by RBD-d2 addition and measured after 2 hrs by TR-FRET assay relative to control; format: cell-based; conditions: time 3.0 hrs
[10] = biological target: Angiotensin-converting enzyme 2 (Homo sapiens) (UniProt Q9BYF1); experiment: Inhibition of recombinant ACE2 (unknown origin) exopeptidase activity using fluorogenic substrate at 0.5 to 10 uM incubated for 1 hrs by fluorescence based analysis; conditions: dose 0.5-10 µM
Sequence of Angiotensin-converting enzyme 2 (Homo sapiens) (Q9BYF1 18-805 limits assumed): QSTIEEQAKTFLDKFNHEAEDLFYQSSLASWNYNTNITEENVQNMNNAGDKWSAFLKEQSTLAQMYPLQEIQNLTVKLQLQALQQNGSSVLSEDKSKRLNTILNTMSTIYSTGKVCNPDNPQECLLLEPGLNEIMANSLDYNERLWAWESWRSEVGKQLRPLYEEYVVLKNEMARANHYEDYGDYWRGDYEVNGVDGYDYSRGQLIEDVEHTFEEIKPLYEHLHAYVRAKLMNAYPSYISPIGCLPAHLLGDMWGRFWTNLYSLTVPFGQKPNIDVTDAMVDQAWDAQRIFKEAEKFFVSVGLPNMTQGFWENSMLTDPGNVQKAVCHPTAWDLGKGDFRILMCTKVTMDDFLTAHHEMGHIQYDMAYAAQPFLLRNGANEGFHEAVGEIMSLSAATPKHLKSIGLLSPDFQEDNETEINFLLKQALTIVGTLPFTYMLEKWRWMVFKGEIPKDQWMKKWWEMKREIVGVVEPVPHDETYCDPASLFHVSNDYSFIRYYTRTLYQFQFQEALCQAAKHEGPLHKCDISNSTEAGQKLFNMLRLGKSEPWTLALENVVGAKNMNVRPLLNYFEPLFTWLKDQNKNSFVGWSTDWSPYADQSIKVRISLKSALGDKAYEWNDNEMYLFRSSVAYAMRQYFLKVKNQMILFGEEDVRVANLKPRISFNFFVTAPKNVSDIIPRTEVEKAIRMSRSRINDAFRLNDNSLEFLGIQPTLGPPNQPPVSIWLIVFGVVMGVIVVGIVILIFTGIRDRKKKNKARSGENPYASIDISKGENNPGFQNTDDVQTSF

[11] = biological target: Angiotensin-converting enzyme 2 (Homo sapiens) (UniProt Q9BYF1); experiment: Inhibition of recombinant ACE2 (unknown origin) exopeptidase activity using fluorogenic substrate at 0.5 to 10 uM incubated for 1 hrs by fluorescence based analysis relative to control; conditions: dose 0.5-10 µM
[12] = Inhibition of CAMKII (unknown origin) using syntide-2 as substrate assessed as maximum efficacy incubated for 30 mins by spectrophotometric analysis; design: species or system Homo sapiens
[13] = system: HEK-293T; experiment: Cytotoxicity against HEK293T cells expressing human ACE2 assessed as effect on cell viability; format: toxicity, cell-based
[14] = system: SARS-CoV-2; experiment: Antiviral activity against SARS-CoV-2 infected in African green monkey Vero cells assessed as inhibition of viral replication at 1 uM preincubated with cells for 1 hrs followed by viral infection by FISH-flow quantification analysis; format: functional, organism-based; conditions: Severe acute respiratory syndrome coronavirus 2
[15] = system: SARS-CoV-2; experiment: Antiviral activity against SARS-CoV-2 infected in African green monkey Vero cells assessed as inhibition of viral replication at 10 uM preincubated with cells for 1 hrs followed by viral infection by FISH-flow quantification analysis; format: functional, organism-based; conditions: Severe acute respiratory syndrome coronavirus 2
[16] = system: Vero; experiment: Cytotoxicity against African green monkey Vero cells assessed as effect on cell viability; format: toxicity, cell-based; conditions: chlorocebus sabaeus
[17] = system: Vero; experiment: Cytotoxicity against African green monkey Vero cells infected with SARS-CoV-2 assessed as effect on cell viability; format: toxicity, cell-based; conditions: chlorocebus sabaeus
[18] = biological target: Replicase polyprotein 1ab (Severe acute respiratory syndrome coronavirus 2) (UniProt P0DTD1); experiment: Inhibition of SARS-CoV-2 main protease transfected in HEK293T cells co-transfected with gain of signal Src and Tat-Luc reporter construct at 1 uM measured 48 hrs post transfection by luciferase based analysis relative to control; format: cell-based

Structure (SMILES) | Imax [1] [%] | pKi [3] | pKi [4] | Ratio pKi [5] | inhibition [9] [%] | inhibition [10] | other results
COc1ccc2[nH]cc(CCNC(C)=O)c2c1 | 20 | – | – | – | – | – | –
O=C(Oc1cncc(Cl)c1)c1cccc2[nH]ccc12 | – | – | – | – | – | – | pIC50 [2]: 5.55
O=C(NCCc1c(C(O)c2ccccc2)[nH]c2ccccc12)C(F)(F)F (centres undefined) | – | 5.60 | 5.94 | 0.94 | – | – | pEC50 [6]: > 5.00
COc1ccc2[nH]c(C(O)c3ccccc3)c(CCNC(C)=O)c2c1 (centres undefined) | – | 5.90 | 6.01 | 0.98 | 20 | inactive | pEC50 [7]: 6.28; pEC50 [8]: 6.65
COC(=O)NCCc1c(C(O)c2ccc(Cl)cc2)[nH]c2ccccc12 (centres undefined) | – | 4.60 | 5.28 | 0.87 | – | – | –
COC(=O)NCCc1c(C(O)c2ccc(OC)cc2F)[nH]c2ccc(OC)cc12 (centres undefined) | – | 5.69 | 5.31 | 1.07 | – | inactive | pEC50 [7]: > 5.00; pEC50 [8]: > 5.00
COC(=O)NCCc1c(C(O)c2ccccc2)[nH]c2ccccc12 (centres undefined) | – | 4.64 | 5.70 | 0.81 | – | – | –
CN1CC(=O)NC(CCc2c(C(O)c3ccccc3N)[nH]c3ccccc23)C1=O (centres undefined) | – | 4.38 | 4.77 | 0.92 | – | – | –
COc1ccc(C(O)c2[nH]c3ccc(OC)cc3c2CCNC(C)=O)c(F)c1 (centres undefined) | – | 5.17 | 6.53 | 0.79 | – | inactive | –
CC(=O)NCC(=O)N[C@@H](CC(=O)O)C(=O)N[C@@H](Cc1ccc(O)cc1)C(=O)N[C@@H](CO)C(=O)N[C@@H](Cc1cnc[nH]1)C(=O)N[C@H]1CSSC[C@@H](C(=O)N[C@H](C(=O)N[C@@H](Cc2ccc(O)cc2)C(=O)N2CCC[C@H]2C(=O)N[C@@H](CC(=O)O)C(=O)N2CCC[C@H]2C(=O)N[C@@H](CCC(=O)O)C(=O)NCC(=O)NCC(=O)NCC(N)=O)[C@@H](C)O)NC(=O)[C@H](CCCCN)NC(=O)[C@H](Cc2c[nH]c3ccccc23)NC(=O)[C@H](Cc2c[nH]c3ccccc23)NC(=O)[C@@H]2CCCN2C(=O)[C@H](Cc2ccc(O)cc2)NC(=O)[C@H](Cc2ccc(O)cc2)NC(=O)[C@H](CCCNC(=N)N)NC(=O)[C@H](CC(C)C)NC(=O)[C@@H]2CCCN2C(=O)[C@H](CO)NC1=O | – | – | – | – | – | – | inhibition [11]: 100%
COC(=O)NCCc1c(C(O)c2ccc(OC)cc2)[nH]c2ccc(OC)cc12 (centres undefined) | – | 3.96 | 4.18 | 0.94 | 20 | inactive | –
COC(=O)NCCc1c(C(O)c2ccc(F)cc2)[nH]c2ccc(OC)cc12 (centres undefined) | – | 5.74 | 6.13 | 0.94 | – | inactive | pEC50 [7]: 5.50; pEC50 [8]: 6.59
COc1ccc(C(O)c2[nH]c3ccc(OC)cc3c2CCNC(C)=O)cc1 (centres undefined) | – | 5.12 | 6.37 | 0.8 | 20 | inactive | –
COc1ccc2[nH]c(C(O)c3ccc(F)cc3)c(CCNC(C)=O)c2c1 (centres undefined) | 40 | 5.27 | 5.34 | 0.98 | 20 | inactive | pEC50 [7]: > 5.00; pEC50 [8]: > 5.00; pEC50 [12]: ~4.60
CC(=O)NCCc1c(C(O)c2ccccc2)[nH]c2ccccc12 (centres undefined) | – | 5.56 | 6.00 | 0.93 | – | – | –
COc1ccc2[nH]c(C(O)c3ccc(Cl)cc3)c(CCNC(C)=O)c2c1 (centres undefined) | 40 | 6.29 | 7.29 | – | 35 | inactive | Activity [13]: Non-Toxic; Activity [14]: inactive; Activity [15]: inactive; Activity [16]: Non-Toxic; Activity [17]: Non-Toxic; inhibition [18]: < 20%; pEC50 [12]: ~4.60
CCC(=O)NCC[C@@H]1CCc2ccc3c(c21)CCO3 | 20 | – | – | – | – | – | –
COC(=O)NCCc1c(C(O)c2ccccc2)[nH]c2ccc(OC)cc12 (centres undefined) | 40 | 6.05 | 6.72 | – | 20 | inactive | pEC50 [7]: > 5.00; pEC50 [8]: > 5.00; Activity [13]: Non-Toxic; Activity [14]: inactive; Activity [15]: Active; Activity [16]: Non-Toxic; Activity [17]: Non-Toxic; inhibition [18]: > 70%; pEC50 [12]: ~4.60
COc1ccc2cccc(CCNC(C)=O)c2c1 | 20 | – | – | – | – | – | –
CC(=O)NCCc1c(C(O)c2ccc(Cl)cc2)[nH]c2ccccc12 (centres undefined) | – | 5.35 | 5.36 | 0.99 | 20 | inactive | –
